From patent US20250230193A1, “CYCLIC COMPOUND HAVING SELECTIVE KRAS INHIBITORY EFFECT ON HRAS AND NRAS” (CHUGAI SEIYAKU KABUSHIKI KAISHA, priority 2022, published 2025)
Where a SMILES comes first, the peptide text is derived from it. Bridges are numbered along the chain shown (N, C = ends). [ ]: non-standard residue; d: D form. The star is where a group is joined. hPhe(3,5-F2-4-CF3) = N[C@@H](CCc1cc(F)c(C(F)(F)F)c(F)c1)C(=O)O; hPhe(3-Cl-4-CF3) = N[C@@H](CCc1ccc(C(F)(F)F)c(Cl)c1)C(=O)O; NPrPhe(4-CF3) = CCCN[C@@H](Cc1ccc(C(F)(F)F)cc1)C(=O)O; NMeAbu(4,4,4-F3) = CN[C@@H](CC(F)(F)F)C(=O)O; Pro(4-spirocPr) = O=C(O)[C@@H]1CC2(CC2)CN1; NMeGly(cPent) = CN[C@H](C(=O)O)C1CCCC1; NMeD = CN[C@@H](CC(=O)O)C(=O)O; NMeL = CN[C@@H](CC(C)C)C(=O)O; αMeV = CC(C)[C@](C)(N)C(=O)O; Morpholide = C1CN(*)CCO1; NMeA = CN[C@@H](C)C(=O)O; Ac5c = NC1(C(=O)O)CCCC1; Aze = O=C(O)[C@@H]1CCN1; Sar = CNCC(=O)O

Assays:
[1] = biological target: GDP-bound HRAS wild-type protein (Homo sapiens, UniProt P01112); experiment: Binding to HRAS by surface plasmon resonance (SPR), Single Cycle Kinetics; settings: SPR
[2] = biological target: GDP-bound NRAS wild-type protein (Homo sapiens, UniProt P01111); experiment: Binding to NRAS by surface plasmon resonance (SPR), Single Cycle Kinetics; settings: SPR
[3] = KD ratio, GDP-bound HRAS wild-type vs GDP-bound KRAS wild-type
[4] = KD ratio, GDP-bound NRAS wild-type vs GDP-bound KRAS wild-type

Chain of GDP-bound HRAS wild-type protein (P01112 whole entry): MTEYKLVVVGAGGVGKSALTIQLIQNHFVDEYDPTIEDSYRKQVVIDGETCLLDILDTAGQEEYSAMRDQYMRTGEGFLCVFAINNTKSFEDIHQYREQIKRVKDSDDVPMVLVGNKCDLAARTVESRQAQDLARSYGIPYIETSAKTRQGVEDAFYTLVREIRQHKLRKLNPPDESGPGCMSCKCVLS
Chain of GDP-bound NRAS wild-type protein (P01111 whole entry): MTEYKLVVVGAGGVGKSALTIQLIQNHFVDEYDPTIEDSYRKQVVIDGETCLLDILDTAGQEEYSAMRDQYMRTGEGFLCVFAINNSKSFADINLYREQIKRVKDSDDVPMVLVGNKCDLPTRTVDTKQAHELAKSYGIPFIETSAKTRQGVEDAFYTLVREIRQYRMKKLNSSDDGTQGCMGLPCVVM

CCCN1C(=O)[C@@H]2CCN2C(=O)[C@H](C)N(C)C(=O)[C@H]([C@@H](C)CC)NC(=O)[C@H](CC(C)C)N(C)C(=O)C[C@@H](C(=O)N2CCOCC2)N(C)C(=O)[C@H](C2CCCC2)N(C)C(=O)C2(CCCC2)NC(=O)[C@@H]2CC3(CC3)CN2C(=O)[C@H](CCc2ccc(C(F)(F)F)c(Cl)c2)NC(=O)CN(C)C(=O)[C@@H]1Cc1ccc(C(F)(F)F)cc1 [PP0282] ([NMeL]I[NMeA][Aze][NPrPhe(4-CF3)][Sar][hPhe(3-Cl-4-CF3)][Pro(4-spirocPr)][Ac5c][NMeGly(cPent)][NMeD]-Morpholide; lactam N-11)
HRAS/KRAS (ratio of KD for GDP-bound HRAS wild-type to KD for KRAS) ([1]; KD ratio HRAS/KRAS): C (A compound having a KD ratio of 0.1 or more and less than 3 is denoted as C)
NRAS/KRAS (ratio of KD for GDP-bound NRAS wild-type to KD for KRAS) ([2]; KD ratio NRAS/KRAS): C (A compound having a KD ratio of 0.1 or more and less than 3 is denoted as C)

CCCN1C(=O)[C@@H]2CCN2C(=O)CN(C)C(=O)[C@H]([C@@H](C)CC)NC(=O)[C@H](CC(C)C)N(C)C(=O)C[C@@H](C(=O)N2CCOCC2)N(C)C(=O)[C@H](C2CCCC2)N(C)C(=O)[C@](C)(C(C)C)NC(=O)[C@@H]2CCCN2C(=O)[C@H](CCc2cc(F)c(C(F)(F)F)c(F)c2)NC(=O)CN(C)C(=O)[C@@H]1Cc1ccc(C(F)(F)F)cc1 [PP0792] ([NMeL]I[Sar][Aze][NPrPhe(4-CF3)][Sar][hPhe(3,5-F2-4-CF3)]P[αMeV][NMeGly(cPent)][NMeD]-Morpholide; lactam N-11)
HRAS/KRAS (ratio of KD value with respect to GDP-bound HRAS wild-type protein to KD value with respect to KRAS) ([1]; KD ratio HRAS/KRAS): B (a compound having 3 or more and less than 10 is denoted as B)
NRAS/KRAS (ratio of KD value with respect to GDP-bound NRAS wild-type protein to KD value with respect to KRAS) ([2]; KD ratio NRAS/KRAS): C (A compound having a KD ratio of 0.1 or more and less than 3 is denoted as C)

CCC[C@H]1C(=O)N[C@@H]([C@@H](C)CC)C(=O)N(C)CC(=O)N(C)[C@H]2C/C=C\CCN(C2=O)[C@@H](Cc2ccc(C)cc2)C(=O)N(C)CC(=O)N[C@@H](CCc2cc(F)c(C(F)(F)F)c(F)c2)C(=O)N2C[C@H](OCC)C[C@H]2C(=O)N(C)C2(CCC2)C(=O)N(C)[C@@H](C2CCCC2)C(=O)N(C)[C@H](C(=O)N2CCCC2)CC(=O)N1C [PP3121, (2S,8S,12R,14S,20S,23S,27S,30S,36S,38Z)-20-cyclopentyl-8-[2-[3,5-difluoro-4-(trifluoromethyl)phenyl]ethyl]-12-ethoxy-4,16,19,22,26,32,35-heptamethyl-30-[(1S)-1-methylpropyl]-27-propyl-2-(p-tolylmethyl)-23-(pyrrolidine-1-carbonyl)spiro[1,4,7,10,16,19,22,26,29,32,35-undecazatricyclo[34.5.1.0^10,14]dotetracont-38-ene-17,1′-cyclobutane]-3,6,9,15,18,21,25,28,31,34,42-undecone]
HRAS/KRAS (ratio of KD value with respect to GDP-bound HRAS wild-type protein to KD value with respect to KRAS) ([1]; KD ratio HRAS/KRAS, GDP-bound wild-type proteins): A (a compound having 10 or more and less than 20 is denoted as A)
NRAS/KRAS (ratio of KD value with respect to GDP-bound NRAS wild-type protein to KD value with respect to KRAS) ([2]; KD ratio NRAS/KRAS, GDP-bound wild-type proteins): A (a compound having 10 or more and less than 20 is denoted as A)

CC[C@H](C)[C@@H]1NC(=O)[C@H](CC(C)C)N(C)C(=O)C[C@@H](C(=O)N2CCOCC2)N(C)C(=O)[C@H](C2CCCC2)N(C)C(=O)C2(CCCC2)NC(=O)[C@@H]2CCCN2C(=O)[C@H](CCc2cc(F)c(C(F)(F)F)c(F)c2)NC(=O)CN(C)C(=O)[C@H](Cc2ccc(C(F)(F)F)cc2)N2CCCCC[C@@H](C2=O)N(C)C(=O)[C@@H]2CCCN2C1=O [PP0485]
HRAS/KRAS (ratio of KD value with respect to GDP-bound HRAS wild-type protein to KD value with respect to KRAS) ([1]; KD ratio HRAS/KRAS): B (a compound having 3 or more and less than 10 is denoted as B)
NRAS/KRAS (ratio of KD value with respect to GDP-bound NRAS wild-type protein to KD value with respect to KRAS) ([2]; KD ratio NRAS/KRAS): A (a compound having 10 or more and less than 20 is denoted as A)

CCO[C@@H]1C[C@H]2C(=O)NC3(CC(C)(C)C3)C(=O)N(C)[C@@H](C3CCCC3)C(=O)N(C)[C@H](C(=O)N(C)C)CC(=O)N(C)[C@@H](CC3CC3)C(=O)N[C@@H]([C@@H](C)CC)C(=O)N(C)CC(=O)N(C)[C@H]3C/C=C\CCN(C3=O)[C@@H](Cc3ccc(C(F)(F)F)cc3)C(=O)N(C)CC(=O)N[C@@H](CCc3cc(F)c(Cl)c(F)c3)C(=O)N2C1 [PP1759]
HRAS/KRAS (ratio of KD value for HRAS to KD value for KRAS) [1, 3]: A (a compound having 10 or more and less than 20 is denoted as A)
NRAS/KRAS (ratio of KD value for NRAS to KD value for KRAS) [2, 4]: A (a compound having 10 or more and less than 20 is denoted as A)

CCO[C@@H]1C[C@H]2C(=O)NC3(CCC3)C(=O)N(C)[C@@H](C3CCCC3)C(=O)N(C)[C@H](C(=O)N3CCOCC3)CC(=O)N(C)[C@@H](COC)C(=O)N[C@@H]([C@@H](C)CC)C(=O)N(C)CC(=O)N(C)[C@H]3CCCCCN(C3=O)[C@@H](Cc3ccc(F)cc3)C(=O)N(C)CC(=O)N[C@@H](CCc3cc(F)c(C(F)(F)F)c(F)c3)C(=O)N2C1 [PP1179]
HRAS/KRAS (ratio of KD value with respect to HRAS to KD value with respect to KRAS) [1, 3]: B (a compound having 3 or more and less than 10 is denoted as B)
NRAS/KRAS (ratio of KD value with respect to NRAS to KD value with respect to KRAS) [2, 4]: B (a compound having 3 or more and less than 10 is denoted as B)

CC[C@H](C)[C@@H]1NC(=O)[C@H](CC)N(C)C(=O)C[C@@H](C(=O)N2CCOCC2)N(C)C(=O)[C@H](C2CCCC2)N(C)C(=O)C2(CCCC2)NC(=O)[C@@H]2CCCN2C(=O)[C@H](CCc2cc(F)c(C(F)(F)F)c(F)c2)NC(=O)CN(C)C(=O)[C@H](Cc2ccc(C(F)(F)F)cc2)N2CCCCC[C@@H](C2=O)N(C)C(=O)CN(C)C1=O [PP0488]
HRAS/KRAS (ratio of KD value with respect to GDP-bound HRAS wild-type protein to KD value with respect to KRAS) ([1]; KD ratio HRAS/KRAS): B (a compound having 3 or more and less than 10 is denoted as B)
NRAS/KRAS (ratio of KD value with respect to GDP-bound NRAS wild-type protein to KD value with respect to KRAS) ([2]; KD ratio NRAS/KRAS): A (a compound having 10 or more and less than 20 is denoted as A)

CCC[C@@H]1C[C@H]2C(=O)NC3(CC(C)(C)C3)C(=O)N(C)[C@@H](C3CCCC3)C(=O)N(C)[C@H](C(=O)N(C)C)CC(=O)N(C)[C@@H](C)C(=O)N[C@@H]([C@@H](C)CC)C(=O)N(C)CC(=O)N(C)[C@H]3C/C=C\CCN(C3=O)[C@@H](Cc3ccc(C(F)(F)F)cc3)C(=O)N(C)CC(=O)N[C@@H](CCc3cc(F)c(C(F)(F)F)c(F)c3)C(=O)N2C1 [PP2273]
HRAS/KRAS (ratio of KD value with respect to HRAS to KD value with respect to KRAS) ([1]; GDP-bound HRAS wild-type vs GDP-bound KRAS wild-type): A (a compound having 10 or more and less than 20 is denoted as A)
NRAS/KRAS (ratio of KD value with respect to NRAS to KD value with respect to KRAS) ([2]; GDP-bound NRAS wild-type vs GDP-bound KRAS wild-type): AA (a compound having 20 or more is denoted as AA)

CCCN1C(=O)[C@@H]2CCN2C(=O)CN(C)C(=O)[C@H]([C@@H](C)CC)NC(=O)[C@H](CC(C)C)N(C)C(=O)C[C@@H](C(=O)N2CCOCC2)N(C)C(=O)[C@H](CC(F)(F)F)N(C)C(=O)C2(CCCC2)NC(=O)[C@@H]2CCCN2C(=O)[C@H](CCc2cc(F)c(C(F)(F)F)c(F)c2)NC(=O)CN(C)C(=O)[C@@H]1Cc1ccc(C(F)(F)F)cc1 [PP0803] ([NMeL]I[Sar][Aze][NPrPhe(4-CF3)][Sar][hPhe(3,5-F2-4-CF3)]P[Ac5c][NMeAbu(4,4,4-F3)][NMeD]-Morpholide; lactam N-11)
HRAS/KRAS (ratio of KD value with respect to GDP-bound HRAS wild-type protein to KD value with respect to KRAS) ([1]; KD ratio HRAS/KRAS): B (a compound having 3 or more and less than 10 is denoted as B)
NRAS/KRAS (ratio of KD value with respect to GDP-bound NRAS wild-type protein to KD value with respect to KRAS) ([2]; KD ratio NRAS/KRAS): C (A compound having a KD ratio of 0.1 or more and less than 3 is denoted as C)
